Measured values as given in patent publication US20130072427A1, “GPR 119 MODULATORS” (Pfizer Inc., priority 2009, published 2013).
Values joined by “and” are separate entries in the source; they are usually repeats but may differ in a detail not shown here. Equal entries are not always repeated.

Tests used:
human GPR119 [1] = target: T1, human GPR119 (Homo sapiens, UniProt Q8TDV5); assay: cAMP functional assay (HTRF, hGPR119 HEK-CRE beta-lactamase cells); type: cell-based
T1 construct: host or cells: HEK293-CRE beta-lactamase cells
T1 sequence (Q8TDV5 1-335): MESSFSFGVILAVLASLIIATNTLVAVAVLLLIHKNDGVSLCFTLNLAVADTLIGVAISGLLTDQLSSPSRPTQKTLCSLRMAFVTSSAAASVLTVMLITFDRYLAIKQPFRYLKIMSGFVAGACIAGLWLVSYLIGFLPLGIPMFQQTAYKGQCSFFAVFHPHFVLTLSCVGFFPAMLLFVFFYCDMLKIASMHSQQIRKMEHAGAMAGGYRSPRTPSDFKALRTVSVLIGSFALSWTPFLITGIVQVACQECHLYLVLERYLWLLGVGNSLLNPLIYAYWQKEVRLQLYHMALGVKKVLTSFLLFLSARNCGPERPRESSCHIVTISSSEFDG
Method: GPR119 agonist activity was also determined with a cell-based assay utilizing an HTRF (Homogeneous Time-Resolved Fluorescence) cAMP detection kit (cAMP dynamic 2 Assay Kit; Cis Bio cat #62AM4PEC) that measures cAMP levels in the cell. The method is a competitive immunoassay between native cAMP produced by the cells and the cAMP labeled with the dye d2. The tracer binding is visualized by a Mab anti-cAMP labeled with Cryptate. The specific signal (i.e. energy transfer) is inversely proportional to the concentration of cAMP in either standard or sample.
Specifically, hGPR119HEK-CRE beta-lactamase cells (Invitrogen 2.5×10^7/ml; the same cell line used in the beta-lactamase assay described above) are removed from cryopreservation and diluted in growth medium (Dulbecco's modified Eagle medium high glucose (DMEM; Gibco Cat #11995-065), 1% charcoal dextran treated fetal bovine serum (CD serum; HyClone Cat #SH30068.03), 1×MEM Nonessential amino acids (Gibco Cat #15630-080) and 25 mM HEPES pH 7.0 (Gibco Cat #15630-080)). The cell concentration was adjusted to 1.5×10^5 cells/ml and 30 mls of this suspension was added to a T-175 flask and incubated at 37 degrees Celsius in a humidified environment in 5% carbon dioxide. After 16 hours (overnight), the cells were removed from the T-175 flask (by rapping the side of the flask), centrifuged at 800×g and then re-suspended in assay medium (1×HBSS+CaCl2+MgCl2 (Gibco Cat #14025-092) and 25 mM HEPES pH 7.0 (Gibco Cat #15630-080)). The cell concentration was adjusted to 6.25×10^5 cells/ml with assay medium and 8 μl of this cell suspension (5000 cells) was added to each well of a white Greiner 384-well, low-volume assay plate (VWR cat #82051-458).
Varying concentrations of each compound to be tested were diluted in assay buffer containing 3-isobutyl-1-methylxanthin (IBMX; Sigma cat #15879) and added to the assay plate wells in a volume of 2 microL (final IBMX concentration was 400 microM and final DMSO concentration was 0.58%). Following 30 minutes incubation at room temperature, 5 microL of labeled d2 cAMP and 5 microL of anti-cAMP antibody (both diluted 1:20 in cell lysis buffer; as described in the manufacturers assay protocol) were added to each well of the assay plate. The plates were then incubated at room temperature and after 60 minutes, changes in the HTRF signal were read with an Envision 2104 multilabel plate reader using excitation of 330 nm and emissions of 615 and 665 nm. Raw data were converted to nM cAMP by interpolation from a cAMP standard curve (as described in the manufacturer's assay protocol) and EC50 determinations were made from an agonist-response curves analyzed with a curve fitting program using a 4-paramter logistic dose response equation.

human GPR119 [2] = target: T1, human GPR119; assay: GPR119 radioligand binding assay ([3H]Cmpd A, membranes of HEK 293FT cells over-expressing hGPR119); conditions: competition with 3H-Cmpd A; Ki from IC50 by Cheng-Prusoff; one line per run
Method: HEK 293FT cells (Invitrogen, Carlsbad, Calif.) were grown in a shake flask in 293Freestyle medium (Invitrogen) supplemented with 50 microg/mL neomycin and 10 mM HEPES (37 C, 8% carbon dioxide, shaking). The cells were centrifuged gently (approximately 500×g, 10 minutes) and the pellet resuspended in a mixture of Dulbecco's PBS(minus Mg++/−Ca++) supplemented with 18% fetal bovine serum (Sigma Aldrich) and P1 virus such that the multiplicity of infection (MOI) was 10 and the final cell density was 1.3×10^6/ml (total volume 2.5 liters). The cells were transferred to a 5 liter Wave Bioreactor Wavebag (Wave Technologies, MA) and incubated for 4 hours at 27 degrees Celsius (17 rocks/min, 7 degrees platform angle); at the end of the incubation period, an equal volume (2.5 liters) of 293Freestyle medium supplemented with 30 mM sodium butyrate (Sigma Aldrich) was added (final concentration=15 mM), and the cells were grown for 20 hours (37 degrees Celsius, 8% CO2 [0.2 liters/min}, 25 rocks/minute, 7 degrees platform angle). Cells were harvested via centrifugation (3,000×g, 10 minutes), washed once on DPBS (minus Ca++/Mg++), resuspended in 0.25M sucrose, 25 mM HEPES, 0.5 mM EDTA, pH 7.4 and frozen at −80 degrees Celsius.
The frozen cells were thawed on ice and centrifuged at 700×g (1400 rpm) for 10 minutes at 4 degrees Celsius. The cell pellet was resuspended in 20 ml phosphate-buffered saline, and centrifuged at 1400 rpm for 10 minutes. The cell pellet was then resuspended in homogenization buffer (10 mM HEPES (Gibco #15630), pH 7.5, 1 mM EDTA (BioSolutions, #BIO260-15), 1 mM EGTA (Sigma, #E-4378), 0.01 mg/ml benzamidine (Sigma #B 6506), 0.01 mg/ml bacitracin (Sigma #B 0125), 0.005 mg/ml leupeptin (Sigma #L 8511), 0.005 mg/ml aprotinin (Sigma #A 1153)) and incubated on ice for 10 minutes. Cells were then lysed with 15 gentle strokes of a tight-fitting glass Dounce homogenizer. The homogenate was centrifuged at 1000×g (2200 rpm) for 10 minutes at 4 degrees Celsius. The supernatant was transferred into fresh centrifuge tubes on ice. The cell pellet was resuspended in homogenization buffer, and centrifuged again at 1000×g (2200 rpm) for 10 minutes at 4 degrees Celsius after which the supernatant was removed and the pellet resuspended in homogenization buffer. This process was repeated a third time, after which the supernatants were combined, Benzonase (Novagen #71206) and MgCl2 (Fluka #63020) were added to final concentrations of 1 U/ml and 6 mM, respectively, and incubated on ice for one hour. The solution was then centrifuged at 25,000×g (15000 rpm) for 20 minutes at 4 degrees Celsius, the supernatant was discarded, and the pellet was resuspended in fresh homogenization buffer (minus Benzonase and MgCl2). After repeating the 25,000×g centrifugation step, the final membrane pellet was resuspended in homogenization buffer and frozen at −80 degrees Celsius. The protein concentration was determined using the Pierce BCA protein assay kit (Pierce reagents A #23223 and B #23224).
Test compounds were serially diluted in 100% DMSO (J. T. Baker #922401). 2 microL of each dilution was added to appropriate wells of a 96-well plate (each concentration in triplicate). Unlabeled Cmpd A, at a final concentration of 10 microM, was used to determine non-specific binding.
^3H-Cmpd A was diluted in binding buffer (50 mM Tris-HCl, pH 7.5, (Sigma #T7443), 10 mM MgCl2 (Fluka 63020), 1 mM EDTA (BioSolutions #BIO260-15), 0.15% bovine serum albumin (Sigma #A7511), 0.01 mg/mL benzamidine (Sigma #B 6506), 0.01 mg/mL bacitracin (Sigma #B 0125), 0.005 mg/mL leupeptin (Sigma #L 8511), 0.005 mg/mL aprotinin (Sigma #A 1153)) to a concentration of 60 nM, and 100 microL added to all wells of 96-well plate (Nalge Nunc #267245).
Membranes expressing GPR119 were thawed and diluted to a final concentration of 20 μg/100 microL per well in Binding Buffer, and 100 microL of diluted membranes were added to each well of 96-well plate. […]

human GPR119 [3] = target: T1, human GPR119; assay: Beta-lactamase functional assay (hGPR119 HEK293-CRE beta-lactamase reporter); type: cell-based
Method: The assay for GPR119 agonists utilizes a cell-based (hGPR119 HEK293-CRE beta-lactamase) reporter construct where agonist activation of human GPR119 is coupled to beta-lactamase production via a cyclic AMP response element (CRE). GPR119 activity is then measured utilizing a FRET-enabled beta-lactamase substrate, CCF4-AM (Live Blazer FRET-B/G Loading kit, Invitrogen cat #K1027). Specifically, hGPR119-HEK-CRE-beta-lactamase cells (Invitrogen 2.5×10^7/mL) were removed from liquid nitrogen storage, and diluted in plating medium (Dulbecco's modified Eagle medium high glucose (DMEM; Gibco Cat #11995-065), 10% heat inactivated fetal bovine serum (HIFBS; Sigma Cat #F4135), 1×MEM Nonessential amino acids (Gibco Cat #15630-080), 25 mM HEPES pH 7.0 (Gibco Cat #15630-080), 200 nM potassium clavulanate (Sigma Cat #P3494). The cell concentration was adjusted using cell plating medium and 50 microL of this cell suspension ([…]) was added into each well of a black, clear bottom, poly-d-lysine coated 384-well plate (Greiner Bio-One cat #781946) and incubated at 37 degrees Celsius in a humidified environment containing 5% carbon dioxide. After 4 hours the plating medium was removed and replaced with 40 microL of assay medium (Assay medium is plating medium without potassium clavulanate and HIFBS). Varying concentrations of each compound to be tested was then added in a volume of 10 microL (final DMSO≦0.5%) and the cells were incubated for 16 hours at 37 degrees Celsius in a humidified environment containing 5% carbon dioxide. Plates were removed from the incubator and allowed to equilibrate to room temperature for approximately 15 minutes. 10 microL of 6×CCF4/AM working dye solution (prepared according to instructions in the Live Blazer FRET-B/G Loading kit, Invitrogen cat #K1027) was added per well and incubated at room temperature for 2 hours in the dark. Fluorescence was measured on an EnVision fluorimetric plate reader, excitation 405 nm, emission 460 nm/535 nm. EC50 determinations were made from agonist-response curves analyzed with a curve fitting program using a 4-parameter logistic dose-response equation.

[4] = hGPR119 HEK-CRE beta-lactamase cells, HTRF cAMP, 30 minutes, one line per run, read-out: Human cAMP Functional EC50
[5] = percent of maximal activity relative to standard GPR119 agonist (WO2005121121) at 10 μM, one line per run, read-out: Intrinsic Activity* (%) (cAMP)

EC50 (human GPR119 [1]; [4]) | Ki (human GPR119 [2]) [nM] | Emax (human GPR119 [1]; [5]) [%] | EC50 (human GPR119 [3]; **the curve was extrapolated to 100% to calculate an EC50, read-out: Human B-lactamase Functional EC50 (nM), curve extrapolated to 100%) [nM] | Emax (human GPR119 [3]; **the curve was extrapolated to 100% to calculate an EC50, read-out: Intrinsic Activity* (%) (B-lactamase), curve extrapolated to 100%) | EC50 (human GPR119 [3]; hGPR119 HEK293-CRE beta-lactamase cells, 16 hours incubation, one line per run, read-out: Human B-lactamase Functional EC50) [nM] | Emax (human GPR119 [3]; percent of maximal activity relative to standard GPR119 agonist (WO2005121121) at 10 microM, one line per run, read-out: Intrinsic Activity* (%) (B-lactamase)) | EC50 (human GPR119 [1]; **the curve was extrapolated to 100% to calculate an EC50, read-out: Human cAMP Functional EC50 (nM), curve extrapolated to 100%) [nM] | Emax (human GPR119 [1]; **the curve was extrapolated to 100% to calculate an EC50, read-out: Intrinsic Activity* (%) (cAMP), curve extrapolated to 100%) | SMILES
239 nM and 108 nM | 26 |  |  |  |  |  |  |  | Cc1c(O[C@H]2[C@@H]3COC[C@H]2CN(C(=O)OC2(C)CC2)C3)ncnc1N1Cc2cnn(C)c2C1 [Example 10, 1-Methylcyclopropyyl (9-anti)-9-{[5-methyl-6-(1-methyl-4,6-dihydropyrrolo[3,4-c]pyrazol-5(1H)-yl)pyrimidin-4-yl]oxy}-3-oxa-7-azabicyclo[3.3.1]nonane-7-carboxylate]
118 nM |  | 82 |  |  |  |  |  |  | Cc1c(OC2CCN(C(=O)OC3(C)CC3)CC2)ncnc1N1Cc2cnn(C)c2C1 [Example 5, 1-Methylcyclopropyl 4-{[5-methyl-6-(1-methyl-4,6-dihydropyrrolo[3,4-c]pyrazol-5(1H)-yl)pyrimidin-4-yl]oxy}piperidine-1-carboxylate]
18 nM |  | 36 |  |  |  |  |  |  | Cc1c(O[C@H]2CCN(C(=O)OC(C)C)C[C@H]2F)ncnc1N1Cc2cnn(C)c2C1 (racemic) [Example 13, 1-Isopropyl (3,4-cis)-3-fluoro-4-{[5-methyl-6-(1-methyl-4,6-dihydropyrrolo[3,4-c]pyrazol-5(1H)-yl)pyrimidin-4-yl]oxy}piperidine-1-carboxylate]
> 10000 nM |  |  | 9220 | 100 | 3850 | 116 | 7500 | 100 | CC(C)OC(=O)N1CCC(Oc2cc(N3Cc4cnn(C)c4C3)ncn2)CC1 [Example 1, Isopropyl 4-{[6-(1-methyl-4,6-dihydropyrrolo[3,4-c]pyrazol-5(1H)-yl)pyrimidin-4-yl]oxy}piperidine-1-carboxylate]
